Reference: the supplement of paper PMC10307832

Experiments:
Experiment in all cases: relative viability (nuclei count vs DMSO), 5 days (fraction); higher = more cells survive
AZ505 + Navitoclax = compound: C1CCC(CC1)N(CCNCCC2=C3C(=C(C=C2)O)NC(=O)CO3)C(=O)CCNCCC4=CC(=C(C=C4)Cl)Cl [AZ505] + CC1(C)CCC(c2ccc(Cl)cc2)=C(CN2CCN(c3ccc(C(=O)NS(=O)(=O)c4ccc(N[C@H](CCN5CCOCC5)CSc5ccccc5)c(S(=O)(=O)C(F)(F)F)c4)cc3)CC2)C1 [Navitoclax] (partner 0.5 µM)
In short: (§1)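 Relative viability is defined as nuclei in treated wells over nuclei in vehicle wells. Duplicate plates were run and medians reported. Lung cancer cell lines in 1536-well plates were dosed by pin tool one day after seeding, with one drug or with a fixed anchor-drug dose plus five library-drug doses (not always all listed) in √10 steps, and nuclei were counted after 5 days.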

AZ505 + Lapatinib = compound: C1CCC(CC1)N(CCNCCC2=C3C(=C(C=C2)O)NC(=O)CO3)C(=O)CCNCCC4=CC(=C(C=C4)Cl)Cl [AZ505] + CS(=O)(=O)CCNCc1ccc(-c2ccc3ncnc(Nc4ccc(OCc5cccc(F)c5)c(Cl)c4)c3c2)o1 [Lapatinib] (partner 2 µM)
In short: as §1

Dactolisib + Luminespib = compound: Cn1c(=O)n(-c2ccc(C(C)(C)C#N)cc2)c2c3cc(-c4cnc5ccccc5c4)ccc3ncc21 [Dactolisib] + CCNC(=O)c1noc(-c2cc(C(C)C)c(O)cc2O)c1-c1ccc(CN2CCOCC2)cc1 [Luminespib] (partner 0.01 µM)
In short: as §1

Dactolisib + Dasatinib = compound: Cn1c(=O)n(-c2ccc(C(C)(C)C#N)cc2)c2c3cc(-c4cnc5ccccc5c4)ccc3ncc21 [Dactolisib] + Cc1nc(Nc2ncc(C(=O)Nc3c(C)cccc3Cl)s2)cc(N2CCN(CCO)CC2)n1 [Dasatinib] (partner 0.075 µM)
In short: as §1

Cell Line: RERF-LC-KJ
- relative viability (AZ505 + Navitoclax; first compound 0.08 µM): 1.3
- relative viability (AZ505 + Navitoclax; first compound 0.253 µM): 0.901
- relative viability (AZ505 + Navitoclax; first compound 0.8 µM): 0.916
- relative viability (AZ505 + Navitoclax; first compound 2.53 µM): 0.869
- relative viability (AZ505 + Navitoclax; first compound 8 µM): 0.753
- relative viability (AZ505 + Lapatinib; first compound 0.08 µM): 0.767
- relative viability (AZ505 + Lapatinib; first compound 0.253 µM): 0.923
- relative viability (AZ505 + Lapatinib; first compound 0.8 µM): 0.846
- relative viability (AZ505 + Lapatinib; first compound 2.53 µM): 0.87
- relative viability (AZ505 + Lapatinib; first compound 8 µM): 0.795
- relative viability (Dactolisib + Luminespib; first compound 0.002 µM): 1.3
- relative viability (Dactolisib + Luminespib; first compound 0.006325 µM): 1.29
- relative viability (Dactolisib + Luminespib; first compound 0.02 µM): 0.859
- relative viability (Dactolisib + Luminespib; first compound 0.06325 µM): 0.326
- relative viability (Dactolisib + Luminespib; first compound 0.2 µM): 0.415
- relative viability (Dactolisib + Dasatinib; first compound 0.002 µM): 0.99
- relative viability (Dactolisib + Dasatinib; first compound 0.006325 µM): 0.747
- relative viability (Dactolisib + Dasatinib; first compound 0.02 µM): 0.69
- relative viability (Dactolisib + Dasatinib; first compound 0.06325 µM): 0.347
- relative viability (Dactolisib + Dasatinib; first compound 0.2 µM): 0.311

Cell Line: LXF-289
- relative viability (AZ505 + Navitoclax; first compound 0.08 µM): 0.891
- relative viability (AZ505 + Navitoclax; first compound 0.8 µM): 0.919
- relative viability (AZ505 + Navitoclax; first compound 2.53 µM): 0.881
- relative viability (AZ505 + Navitoclax; first compound 8 µM): 0.935
- relative viability (AZ505 + Lapatinib; first compound 0.08 µM): 0.876
- relative viability (AZ505 + Lapatinib; first compound 0.8 µM): 0.869
- relative viability (AZ505 + Lapatinib; first compound 2.53 µM): 0.857
- relative viability (AZ505 + Lapatinib; first compound 8 µM): 0.869
- relative viability (Dactolisib + Luminespib; first compound 0.002 µM): 0.698
- relative viability (Dactolisib + Luminespib; first compound 0.006325 µM): 0.688
- relative viability (Dactolisib + Luminespib; first compound 0.02 µM): 0.669
- relative viability (Dactolisib + Luminespib; first compound 0.06325 µM): 0.478
- relative viability (Dactolisib + Luminespib; first compound 0.2 µM): 0.403
- relative viability (Dactolisib + Dasatinib; first compound 0.002 µM): 0.22
- relative viability (Dactolisib + Dasatinib; first compound 0.006325 µM): 0.21
- relative viability (Dactolisib + Dasatinib; first compound 0.02 µM): 0.235
- relative viability (Dactolisib + Dasatinib; first compound 0.06325 µM): 0.221
- relative viability (Dactolisib + Dasatinib; first compound 0.2 µM): 0.121

Cell Line: PC-14
- relative viability (AZ505 + Navitoclax; first compound 0.08 µM): 0.999
- relative viability (AZ505 + Navitoclax; first compound 0.253 µM): 1.07
- relative viability (AZ505 + Navitoclax; first compound 0.8 µM): 0.974
- relative viability (AZ505 + Navitoclax; first compound 2.53 µM): 0.95
- relative viability (AZ505 + Navitoclax; first compound 8 µM): 0.997
- relative viability (AZ505 + Lapatinib; first compound 0.08 µM): 0.316
- relative viability (AZ505 + Lapatinib; first compound 0.253 µM): 0.296
- relative viability (AZ505 + Lapatinib; first compound 0.8 µM): 0.336
- relative viability (AZ505 + Lapatinib; first compound 2.53 µM): 0.411
- relative viability (AZ505 + Lapatinib; first compound 8 µM): 0.319
- relative viability (Dactolisib + Luminespib; first compound 0.002 µM): 0.136
- relative viability (Dactolisib + Luminespib; first compound 0.006325 µM): 0.16
- relative viability (Dactolisib + Luminespib; first compound 0.02 µM): 0.172
- relative viability (Dactolisib + Luminespib; first compound 0.06325 µM): 0.11
- relative viability (Dactolisib + Luminespib; first compound 0.2 µM): 0.128
- relative viability (Dactolisib + Dasatinib; first compound 0.002 µM): 0.312
- relative viability (Dactolisib + Dasatinib; first compound 0.006325 µM): 0.285
- relative viability (Dactolisib + Dasatinib; first compound 0.02 µM): 0.264
- relative viability (Dactolisib + Dasatinib; first compound 0.06325 µM): 0.0655
- relative viability (Dactolisib + Dasatinib; first compound 0.2 µM): 0.0441

Cell Line: NCI-H1666
- relative viability (AZ505 + Navitoclax; first compound 0.08 µM): 0.969
- relative viability (AZ505 + Navitoclax; first compound 0.253 µM): 1.06
- relative viability (AZ505 + Navitoclax; first compound 0.8 µM): 0.99
- relative viability (AZ505 + Navitoclax; first compound 2.53 µM): 0.896
- relative viability (AZ505 + Navitoclax; first compound 8 µM): 0.894
- relative viability (AZ505 + Lapatinib; first compound 0.08 µM): 0.532
- relative viability (AZ505 + Lapatinib; first compound 0.253 µM): 0.544
- relative viability (AZ505 + Lapatinib; first compound 0.8 µM): 0.531
- relative viability (AZ505 + Lapatinib; first compound 2.53 µM): 0.614
- relative viability (AZ505 + Lapatinib; first compound 8 µM): 0.518
- relative viability (Dactolisib + Luminespib; first compound 0.002 µM): 1.1
- relative viability (Dactolisib + Luminespib; first compound 0.006325 µM): 0.963
- relative viability (Dactolisib + Luminespib; first compound 0.02 µM): 1.02
- relative viability (Dactolisib + Luminespib; first compound 0.06325 µM): 0.746
- relative viability (Dactolisib + Luminespib; first compound 0.2 µM): 0.788
- relative viability (Dactolisib + Dasatinib; first compound 0.002 µM): 0.877
- relative viability (Dactolisib + Dasatinib; first compound 0.006325 µM): 0.793
- relative viability (Dactolisib + Dasatinib; first compound 0.02 µM): 0.791
- relative viability (Dactolisib + Dasatinib; first compound 0.06325 µM): 0.677
- relative viability (Dactolisib + Dasatinib; first compound 0.2 µM): 0.588
